17 molecules from patent publication US20100080843A1, “Natural and synthetic sulfur and selenium analogs and polymer conjugated forms thereof for the modulation of angiogenesis” (The Research Foundation of the State University Of New York …, priority 2005, published 2010) can be followed below.

One test deals with endothelial cells. Kind of test: Inhibition of Endothelial Cell Tube Formation (Matrigel, FGF2-stimulated). It counts as cell-based, Human. The conditions noted are these: for inhibition at 3 µM: Homo sapiens, Endothelial cell, read-out: Man % Inhibition +/− SD. The protocol:
Differentiation by endothelial cells was examined using a method developed by Grant et al. (Grant et al., In Vitro Cell Dev. Biol., 27A:327-336 (1991), which is hereby incorporated by reference in its entirety). Matrigel® matrix, phenol-red free (commercially available from Becton Dickinson, Bedford, Mass.) was thawed overnight at 4° C. Using cold pipette tips, 3.0 mg/well of Matrigel® matrix was placed M a cold twenty-four-multi-well plate (Falcon). Matrigel® matrix was allowed to polymerize during incubation at 37° C. for 30 minutes.

Test [1] relates to FGF2-induced angiogenesis in chick chorioalloantoic membranes. Kind of test: Neovascularization in the Chick Chorioalloantoic Membrane (CAM), FGF2-stimulated CAM Model. It counts as in vivo. The conditions noted are these: for Branch Points ± SEM: CAM; for inhibition at 10 µM: Gallus gallus, FGF2 + analog, 10 uM (Table 4), read-out: % inhibition ± SEM Branch point in CAM; for % inhibition ± SEM: CAM branch points (Table 3). The method, then:
In vivo neovascularization was examined by the method previously described by Auerbach et al. (Auerbach et al., J. Dev. Biol., 41:391-394 (1974), which is hereby incorporated by reference in its entirety). Ten-day old embryos were purchased from Spafas, Inc. (Preston, Conn.) and were incubated at 37° C. with 55% relative humidity. In the dark with the help of a candling lamp, a small hole was punctured in the shell concealing the air sac with a hypodermic needle. A second hole was punctured, in the shell on the broadside of the egg directly over an avascular portion of the embryonic membrane, as observed during candling. A false air sac was created beneath the second hole by the application of negative pressure to the first hole, which caused the chorioallantoic membrane (CAM) to separate from the shell. A window, approximately 1.0 cm^2, was cut in the shell over the dropped CAM with the use of a small crafts grinding wheel (Dremel, Division of Emerson Electric Company Racine, Wis.), which allowed direct, access to the underlying CAM. Filter disks of #1 filter paper (Whatman International, United Kingdom) were soaked in 3 mg/mL cortisone acetate (Sigma, St. Louis, Mo.) in a solution of 95% ethanol and water and subsequently air dried under sterile conditions. FGF2 (Life Technologies, Gaithersburg, Md.) was used to grow vessels on the CAMs of 10 day old chick embryos. Sterile filter disks adsorbed with FGF2 dissolved in PBS at 1 μg/mL were placed on growing CAMs. Sterile filter disks adsorbed with FGF2 or sulfur- or selenium-containing compounds, and polymeric forms were dissolved in PBS at 1 μg/mL were placed on growing CAM. At 24 h, test compounds or control vehicle was added directly to CAM topically.
CAM tissue directly beneath FGF2-saturated filter disk was resected from embryos treated 48 hours prior with test compound or control. Tissues were washed three times with PBS. Sections were placed in a 35-mm petri dish (Nalge Nunc, Rochester, N.Y.) and examined under a SV6 stereomicroscope (Karl Zeiss, Thornwood, N.Y.) at 50× magnification. Digital images of CAM sections adjacent to filters were collected using a 3-CCD color video camera system (Toshiba America, New York, N.Y.) and analyzed using Image-Pro Plus software (Media Cybernetics, Silver Spring, Md.).
Statistical Analysis: Statistical analysis was performed by 1-way ANOVA comparing experimental with control samples.

Where [2] appears, read: FGF2 + analog, all compounds tested at 3 μM, n = 3.

Values joined by “and” are separate entries in the source; they are usually repeats but may differ in a detail not shown here. Equal entries are not always repeated.

For the molecule `CS(=O)(=O)CS(C)(=O)=O` [Example 12], in the test with endothelial cells (setting [2]), the “Length(mm) ± SEM” value is reported as 31.47 ± 1.5 mm and the inhibition at 3 µM turned out to be 41.5 ± 4.93%. Moreover, in test [1] (FGF2 (1.0 ug/ml) + analog), the “Branch Points ± SEM” value was found to be 144.83 ± 9.19. Moreover, the inhibition at 10 µM in test [1] was found to be 40.6 ± 10.5%.
Regarding `O=[Se](=O)(c1ccccc1)c1ccccc1` [Example 14], in the test on endothelial cells (setting [2]), the “Length(mm) ± SEM” value is 31.91 ± 1.8 mm and the inhibition at 3 µM was determined as 40.1 ± 6.12%. For the same molecule, in test [1] (FGF2 (1.0 ug/ml) + analog), the “Branch Points ± SEM” value was determined as 143.5 ± 4.7. Besides, the inhibition at 10 µM in test [1] came out at 41.4 ± 4.5%.
For `CS(=O)(=O)C(Cl)(Cl)Cl` [Example 9] the same measures were 21.95 ± 3.1 mm, 73.5 ± 10.5%, 135.83 ± 8.17 and 51 ± 9.36%.
For the molecule `O=S1(=O)CC2(C1)CS(=O)(=O)C2` [Example 13], in the test with endothelial cells (setting [2]), the “Length(mm) ± SEM” value turned out to be 34.61 ± 0.24 mm and the inhibition at 3 µM was determined as 31 ± 0.8%. Also, in test [1] (FGF2 (1.0 ug/ml) + analog), the “Branch Points ± SEM” value came to 164 ± 5 and the “% inhibition ± SEM” value was 24 ± 4.3%. Further, the inhibition at 10 µM in test [1] turned out to be 24.7 ± 4.3%.
Turning to `CC[Se](=O)(=O)CC` [Example 17], in the test on endothelial cells (setting [2]), the “Length(mm) ± SEM” value is 30.98 ± 2.43 mm and the inhibition at 3 µM came out at 38.6 ± 8.7%. In test [1] (FGF2 (1.0 ug/ml) + analog), the “Branch Points ± SEM” value was 146 ± 8.5 and the “% inhibition ± SEM” value is listed as 40 ± 7%. In test [1], the inhibition at 10 µM was found to be 39.9 ± 7.3%.
`O=C(O)C[Se](=O)(=O)CC(=O)O` [Example 20]: in the test on endothelial cells (setting [2]), the “Length(mm) ± SEM” value turned out to be 25.11 ± 3.1 mm and the inhibition at 3 µM was 62.9 ± 10.5%. Besides, in test [1] (FGF2 (1.0 ug/ml) + analog), the “Branch Points ± SEM” value is 148.67 ± 11.02. Also, in test [1], the inhibition at 10 µM was 36.3 ± 12.6%.
For the molecule `CS(=O)(=O)c1ccccc1` [Example 5], in the test on endothelial cells (setting [2]), the “Length(mm) ± SEM” value worked out at 28.81 ± 1.0 mm and the inhibition at 3 µM was 50.5 ± 3.48%. In addition, in test [1] (FGF2 (1.0 ug/ml) + analog), the “Branch Points ± SEM” value was determined as 140 ± 5.2 and the “% inhibition ± SEM” value is reported as 37 ± 5.9%. In test [1], the inhibition at 10 µM came out at 37%.
For the molecule `O=S1(=O)C=CC1` [Example 1], in the test with endothelial cells (setting [2]), the “Length(mm) ± SEM” value was 20.64 ± 0.68 mm and the inhibition at 3 µM was determined as 77.9 ± 2.28%. The “Branch Points ± SEM” value in test [1] (FGF2 (1.0 ug/ml) + analog) stood at 149 ± 8.9. Moreover, the inhibition at 10 µM in test [1] was 48.9 ± 7%.
Consider `C[Se](=O)(=O)c1ccccc1` [Example 16], for which, in the test on endothelial cells (setting [2]), the “Length(mm) ± SEM” value was 28.78 ± 0.88 mm and the inhibition at 3 µM came out at 46.5 ± 3.2%. Moreover, the inhibition at 10 µM in test [1] turned out to be 23.8 ± 4.9%.
Regarding `C[Se](=O)c1ccccc1` (stereo not drawn) [Example 18], in the test on endothelial cells (setting [2]), the “Length(mm) ± SEM” value is recorded as 28.22 ± 0.92 mm and the inhibition at 3 µM amounted to 48.5 ± 3.3%. In test [1] (FGF2 (1.0 ug/ml) + analog), the “Branch Points ± SEM” value is 165 ± 5.7 and the “% inhibition ± SEM” value is listed as 23.8 ± 4.9%. In addition, the inhibition at 10 µM in test [1] turned out to be 39%.
For the molecule `CSCS(C)(=O)=O` [Example 6], in the test with endothelial cells (setting [2]), the “Length(mm) ± SEM” value was determined as 22.91 ± 1.70 mm and the inhibition at 3 µM is 70.3 ± 5.71%. The “Branch Points ± SEM” value in test [1] (FGF2 (1.0 ug/ml) + analog) is 158.0 ± 7.08. For the same molecule, the inhibition at 10 µM in test [1] amounted to 25.6 ± 8.1%.
The like results for `O=S1(=O)CCCC1` [Example 2] were, in that order, 24.03 ± 0.85 mm, 66.5 ± 2.87%, 141.0 ± 10.69 and 55 ± 8.53%.
Regarding “FGF2: growth factor used to grow vessels on the CAMs; pro-angiogenic stimulus [reference compound]”, the “Length(mm) ± SEM” value in the test with endothelial cells (FGF2 alone (stimulated control)) is listed as 43.82 ± 3.2 mm. Besides, the “Branch Points ± SEM” value in test [1] (FGF2 alone, 1.0 ug/ml) is 180.33 ± 8.58 and 193 ± 11 and 173 ± 7.5.
Regarding `O=S(=O)(c1ccccc1)c1ccccc1` [Example 15], in the test with endothelial cells (setting [2]), the “Length(mm) ± SEM” value was found to be 23.43 ± 2.5 mm and the inhibition at 3 µM came to 65.6 ± 8.9%. Also, the “Branch Points ± SEM” value in test [1] (FGF2 (1.0 ug/ml) + analog) stood at 163 ± 15. Moreover, the inhibition at 10 µM in test [1] was found to be 25 ± 13%.
The like results for `CCCCS(=O)(=O)CCCC` [Example 3] were, in that order, 25.41 ± 1.1 mm, 61.9 ± 3.57%, 150.88 ± 14.31 and 47.2 ± 11.4%.
For `CCS(=O)(=O)CC` [Example 19] the same measures were 28.46 ± 25.7 mm, 47.6 ± 9.2%, 131 ± 17 and 53 ± 15%.
In the case of `O=S1(=O)CC=CC1` [Example 4], in the test with endothelial cells (setting [2]), the “Length(mm) ± SEM” value came out at 25.25 ± 0.66 mm and the inhibition at 3 µM was determined as 62.5 ± 2.24%. Also, the “Branch Points ± SEM” value in test [1] (FGF2 (1.0 ug/ml) + analog) is given as 131.57 ± 11.55. Moreover, in test [1], the inhibition at 10 µM is 62.6 ± 9.21%.
